Experimental data published in patent US20120190752A1, “EXO-S-MECAMYLAMINE METHOD, USE, AND COMPOUND FOR TREATMENT” (Targacept Inc., priority 2009, published 2012).

System: subjects with major depressive disorder (MDD) who were inadequate responders to citalopram
Assay: CGI-SI (Clinical Global Impression-Severity of Illness), Phase 2b add-on trial
Type: in vivo, human
Excerpt: The Clinical Global Impression rating scales are commonly used measures of symptom severity, treatment response and the efficacy of treatments in treatment studies of patients with mental disorders (Guy, W., 1976). The Clinical Global Impression—Severity scale (CGI-S) is a 7-point scale that requires the clinician to rate the severity of the patient's illness at the time of assessment, relative to the clinician's past experience with patients who have the same diagnosis. Considering total clinical experience, a patient is assessed on severity of mental illness at the time of rating. In more detail, a multi-center double-blind, randomized, placebo-controlled, parallel group, flexible dose titration study of TC-5214 as adjunctive therapy in subjects with major depressive disorder (MDD) who were inadequate responders to citalopram was conducted in centers in the US and India. The study consisted of a screening period, baseline/washout period, open-label phase, double-blind phase, and a follow-up visit. Subject participation in the study could continue for up to 16 weeks of treatment. Following a washout period of up to 28 days for other antidepressants, subjects with MDD and a MADRS total score >/=28 and a Clinical Global Impression-Severity (CGI-S) score >/=4 were enrolled on Day 1 into an open-label citalopram-only phase of the study. This phase lasted 8 weeks, with citalopram (CIT) dose increased from a once-daily dose of 20 mg (Day 1 through Week 4) to 40 mg (Week 4 through Week 8). A total of 579 subjects entered the open-label citalopram phase. At Week 8, subjects who tolerated 40 mg CIT, but whose MADRS score was reduced <50% from baseline and no lower than 17, and CGI-S≧4, were considered inadequate responders. These subjects (n=270) were randomized in a double-blind fashion to receive either placebo or TC-5214-23 as add-on therapy to continued CIT. The double-blind phase of the study also lasted 8 weeks (Week 8 to Week 16). Study drug, TC-5214-23 or placebo, was started at 2 mg daily (1 mg twice per day [BID] dosing), added on to continuing CIT (40 mg PO qd). After 2 weeks of treatment, the dose of TC-5214 could be increased to 4 mg (2 mg BID) or continued unchanged, with up-titration based upon good tolerability and inadequate therapeutic response. After a further 2 weeks, the dose of TC-5214 could be increased again to 8 mg (4 mg BID) if judged appropriate by the investigator, based upon good tolerability and inadequate therapeutic response. At any time during the double-blind phase of the study, placebo or TC-5214-23 could be reduced to the previous dose level following the emergence of unacceptable adverse events (AEs). […] At this follow-up, any signs or symptoms of relapse were evaluated. If a subject was prematurely discontinued from the study between Week 8 and Week 16 for any reason, the investigator was to make every effort to perform all evaluations as per protocol, assuming the subject had reached the end of the double-blind add-on treatment phase. These evaluations were to be made as soon as possible and within 2 weeks of discontinuation. […] There was no meaningful difference in results as a function of age, gender, site, or smoking status. With regard to efficacy endpoints, the following tables present efficacy used in the ITT (Intent-to-Treat) and PP (Per Protocol) populations unless otherwise specific. The primary inference was based upon Week 16 visit using the ITT population. Change from baseline was obtained by subtracting the baseline values from the individual on-treatment values. Change from Week 16 was obtained by subtracting the Week 16 values from the individual follow-up visit (Week 18/19) values. If either the baseline or Week 16 or on-treatment or follow-up value was missing, the change from baseline or Week 16 value was also set to missing. […]

[1] = ITT, Double Blind Week 18 LOCF (Follow-up), change from Week 16
[2] = PP, Double Blind Week 16 LOCF (change from Week 8)
[3] = PP, Double Blind Week 18 LOCF (Follow-up), change from Week 16

## CNC1(C)C2CCC(C2)C1(C)C (stereo in doubt) [TC-5214, (S)—N,2,3,3-tetramethylnorbornan-2-amine]
ITT and PP populations, result in words
  CGI-SI score change from baseline compared with placebo: statistically significant decreases (improvements)
ITT, Double Blind Week 16 LOCF (change from Week 8)
  CGI-SI Mean Difference between TC-5214 and Placebo: 0.87
[1]
  CGI-SI Adjusted Mean change: −0.05
  CGI-SI Mean Difference between TC-5214 and Placebo: 0.01
ITT, Week 8 to Week 16 LOCF
  CGI-SI Difference vs Placebo + CIT: −0.87
ITT, change from Week 8 (double-blind baseline) to Week 16 LOCF, add-on to citalopram
  CGI-SI Adj. Mean change: −1.79
[2]
  CGI-SI Adjusted Mean change: −2.00
  CGI-SI Mean Difference between TC-5214 and Placebo: 0.92
[3]
  CGI-SI Adjusted Mean change: −0.07
  CGI-SI Mean Difference between TC-5214 and Placebo: 0.05
